The results in this text go back to PubChem BioAssay (NCI).

Usually TGI stands for the concentration at which net growth stops. High values mean lower sensitivity of the cells, low ones greater sensitivity of the cells. The GI50 is the concentration that inhibits growth by half.

Test systems include A549 NSCLC; M14 melanoma; LOX IMVI melanoma; HOP-92 NSCLC; HS 578T breast; IGROV1 ovarian; RXF 393 renal; MDA-MB-435; OVCAR-8 ovarian; SK-MEL-2 melanoma.
What all share (assay): DTP human tumour cell line panel, 48 h

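A five-concentration, 48-hour dose response in 96-well plates underlies each endpoint, interpolated linearly between surrounding concentrations. GI50: concentration for 50% inhibition of growth. Definition used: TGI = concentration required for complete inhibition of growth.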

As to `C=CO/N=[N+](\[O-])N(CC)CC`, the TGI in the assay on A549 NSCLC, in the assay with M14 melanoma, with LOX IMVI melanoma, in the assay with HOP-92 NSCLC, with HS 578T breast and in the assay on IGROV1 ovarian was > 100 µM in each case. Moreover, the TGI with RXF 393 renal, in the assay on MDA-MB-435 and with OVCAR-8 ovarian was > 100 µM in each case.
In the case of `C(/C=N/NC1=NCCCCN1)=N\NC1=NCCCCN1`, the TGI in the assay on A549 NSCLC, in the assay with M14 melanoma, with LOX IMVI melanoma, in the assay on HOP-92 NSCLC, in the assay on HS 578T breast and in the assay on IGROV1 ovarian was > 100 µM each time. For the same compound, the TGI with MDA-MB-435 and in the assay on OVCAR-8 ovarian was > 100 µM throughout.
On to `COc1cc(/C=C/c2ccc(C)cc2)cc(OC)c1OC`, for which the TGI with SK-MEL-2 melanoma is > 31.6 µM; in the assay on A549 NSCLC, 70.1 µM; in the assay on M14 melanoma it was 15.3 µM; in the assay on LOX IMVI melanoma, 13.5 µM; in the assay on HOP-92 NSCLC, 25.5 µM; in the assay with HS 578T breast, 9.71 µM. Further, the TGI was > 91 µM with IGROV1 ovarian, 3.14 µM in the assay on MDA-MB-435 and 15.9 µM in the assay with OVCAR-8 ovarian.
For the compound `Oc1c(C(Nc2ccccc2Br)c2ccccc2)ccc2cccnc12` (stereo unspecified), the GI50 is 2.46 µM in the assay with A549 NSCLC; 2.3 µM with M14 melanoma; 1.91 µM with LOX IMVI melanoma; 6.51 µM in the assay with HOP-92 NSCLC; 10.7 µM in the assay on HS 578T breast; 3.47 µM with IGROV1 ovarian. In addition, the GI50 with RXF 393 renal is 1.97 µM; in the assay with MDA-MB-435, 4 µM; in the assay on OVCAR-8 ovarian, 2.11 µM. For the same compound, the TGI with A549 NSCLC is > 100 µM; with M14 melanoma, 8.47 µM; in the assay with LOX IMVI melanoma, 13.6 µM; in the assay with HOP-92 NSCLC, 75.9 µM; with HS 578T breast, > 100 µM; with IGROV1 ovarian it was 22.9 µM. In addition, the TGI in the assay on RXF 393 renal is 20.9 µM; in the assay with MDA-MB-435 it was 70.2 µM; with OVCAR-8 ovarian, > 100 µM.
With `CO/N=C(\COc1ccc2c(=O)c3ccccc3oc2c1)c1ccccc1`, the GI50 in the assay on A549 NSCLC is 35.2 µM; in the assay with M14 melanoma, 73.5 µM; in the assay with LOX IMVI melanoma, 35.9 µM; in the assay with HOP-92 NSCLC it was 25.7 µM; in the assay with HS 578T breast, 30.6 µM; in the assay with IGROV1 ovarian, 39.6 µM. For the same compound, the results for the GI50 in the assay on RXF 393 renal, in the assay on MDA-MB-435 and in the assay on OVCAR-8 ovarian were 39 µM, 86.7 µM and 30.4 µM, respectively. For the same compound, the TGI with A549 NSCLC is 99.4 µM; in the assay with M14 melanoma it was > 100 µM; with LOX IMVI melanoma it was > 100 µM; in the assay on HOP-92 NSCLC, 64 µM; with HS 578T breast, 89.8 µM; with IGROV1 ovarian it was > 100 µM. In addition, the TGI is > 100 µM in the assay on RXF 393 renal, > 100 µM in the assay with MDA-MB-435 and 97.2 µM with OVCAR-8 ovarian.
`COc1c(C(C)=O)c(OCCCCOc2c(C(C)=O)c(OC)c3ccoc3c2OC)c(OC)c2occc12`: the GI50 is 2.76 µM with SK-MEL-2 melanoma; 3.35 µM with A549 NSCLC; 2.55 µM in the assay on M14 melanoma; 4.81 µM with LOX IMVI melanoma; > 100 µM in the assay on HS 578T breast; 7.58 µM with IGROV1 ovarian. The GI50 is 2.14 µM with MDA-MB-435 and 2.27 µM with OVCAR-8 ovarian. The TGI in the assay with SK-MEL-2 melanoma, in the assay on A549 NSCLC, in the assay with M14 melanoma, with LOX IMVI melanoma, in the assay with HS 578T breast and with IGROV1 ovarian was > 100 µM in each case. Further, the TGI in the assay with MDA-MB-435 was > 100 µM; in the assay with OVCAR-8 ovarian, 7.85 µM.
In the case of `COc1cc(-c2nc3ccccc3s2)ccc1OCCCCOc1cc2c(cc1OC)C(=O)N1CCC[C@H]1C=N2`, the GI50 is 1.6 µM in the assay on SK-MEL-2 melanoma; 2.8 µM in the assay on A549 NSCLC; 1.38 µM in the assay with M14 melanoma; 0.726 µM in the assay with LOX IMVI melanoma; 0.475 µM in the assay on HOP-92 NSCLC; 1.23 µM with HS 578T breast. In addition, the GI50 was 3.06 µM with IGROV1 ovarian, 0.24 µM in the assay on RXF 393 renal and 1.99 µM in the assay with OVCAR-8 ovarian. The TGI amounted to 4.23 µM with SK-MEL-2 melanoma; 7.91 µM in the assay with A549 NSCLC; 2.92 µM in the assay on M14 melanoma; 2.22 µM with LOX IMVI melanoma; 1.19 µM with HOP-92 NSCLC; 4.47 µM in the assay with HS 578T breast. Moreover, the figures for the TGI in the assay on IGROV1 ovarian, in the assay with RXF 393 renal and in the assay with OVCAR-8 ovarian were 12.7 µM, 0.698 µM and 22.7 µM, respectively.
With `COc1ccccc1/C=C1\COc2ccc(-c3ccccc3)cc2C1=O`, the GI50 with SK-MEL-2 melanoma is 3.82 µM; in the assay on A549 NSCLC, 2.61 µM; with M14 melanoma, 4 µM; in the assay on LOX IMVI melanoma, 2.97 µM; in the assay on HOP-92 NSCLC, 4.18 µM; in the assay on HS 578T breast, 2.75 µM. For the same compound, the GI50 with IGROV1 ovarian was 4.69 µM; in the assay with MDA-MB-435, 2.11 µM; in the assay on OVCAR-8 ovarian, 3.27 µM. Further, the TGI in the assay on SK-MEL-2 melanoma was 22.1 µM; in the assay with A549 NSCLC it was 8.9 µM; with M14 melanoma, 32.2 µM; with LOX IMVI melanoma, 10.7 µM; with HOP-92 NSCLC, > 100 µM; in the assay with HS 578T breast, 7.29 µM. The values for the TGI in the assay with IGROV1 ovarian, in the assay with MDA-MB-435 and in the assay on OVCAR-8 ovarian were > 100 µM, > 100 µM and 10.5 µM, respectively.
Turning to `N#CC(CCN1CCC(Nc2ccccc2)(c2nnnn2C2CCCCC2)CC1)(c1ccccc1)c1ccccc1`, the TGI with SK-MEL-2 melanoma, with A549 NSCLC, in the assay on M14 melanoma, in the assay on LOX IMVI melanoma, in the assay on HS 578T breast and with IGROV1 ovarian was > 100 µM throughout. The TGI with RXF 393 renal, in the assay with MDA-MB-435 and with OVCAR-8 ovarian was > 100 µM in each case.
`COc1ccc2c(c1)/C(=C\c1ccncc1)C(=O)N2`: the GI50 in the assay with SK-MEL-2 melanoma is 6.12 µM; with A549 NSCLC it was 17.3 µM; in the assay with M14 melanoma it was 8.33 µM; with LOX IMVI melanoma it was 2.26 µM; in the assay with HOP-92 NSCLC, 22.4 µM; with HS 578T breast, 27.4 µM. The GI50 with IGROV1 ovarian was 4.15 µM; with MDA-MB-435, 6.57 µM; in the assay with OVCAR-8 ovarian, 10.3 µM. For the same compound, the TGI came to 23.6 µM in the assay with SK-MEL-2 melanoma; 46.4 µM in the assay with A549 NSCLC; 26 µM in the assay with M14 melanoma; 5.82 µM in the assay with LOX IMVI melanoma; 98 µM in the assay with HOP-92 NSCLC; 82.1 µM with HS 578T breast. Further, the values for the TGI in the assay with IGROV1 ovarian, in the assay on MDA-MB-435 and in the assay with OVCAR-8 ovarian were 9.37 µM, 39.3 µM and 32.7 µM, respectively.
